pIC50: −log10 of the molar value. Activity calls are given as the source filed them. No cut-off for these calls is given here.
Experiments:
[1] = target: Interleukin-1 receptor-associated kinase 1 (Homo sapiens, UniProt P51617); experiment: Inhibition of truncated human N-terminal GST-fusion tagged IRAK1 (194 to 712 residues) expressed in baculovirus expression system using FAM-labelled peptide as substrate preincubated for 10 mins followed by substrate addition and further incubated for 1 hr in presence of ATP at Km concentration by caliper mobility shift assay
Chain of Interleukin-1 receptor-associated kinase 1 (P51617 whole entry, the tested form may be a part): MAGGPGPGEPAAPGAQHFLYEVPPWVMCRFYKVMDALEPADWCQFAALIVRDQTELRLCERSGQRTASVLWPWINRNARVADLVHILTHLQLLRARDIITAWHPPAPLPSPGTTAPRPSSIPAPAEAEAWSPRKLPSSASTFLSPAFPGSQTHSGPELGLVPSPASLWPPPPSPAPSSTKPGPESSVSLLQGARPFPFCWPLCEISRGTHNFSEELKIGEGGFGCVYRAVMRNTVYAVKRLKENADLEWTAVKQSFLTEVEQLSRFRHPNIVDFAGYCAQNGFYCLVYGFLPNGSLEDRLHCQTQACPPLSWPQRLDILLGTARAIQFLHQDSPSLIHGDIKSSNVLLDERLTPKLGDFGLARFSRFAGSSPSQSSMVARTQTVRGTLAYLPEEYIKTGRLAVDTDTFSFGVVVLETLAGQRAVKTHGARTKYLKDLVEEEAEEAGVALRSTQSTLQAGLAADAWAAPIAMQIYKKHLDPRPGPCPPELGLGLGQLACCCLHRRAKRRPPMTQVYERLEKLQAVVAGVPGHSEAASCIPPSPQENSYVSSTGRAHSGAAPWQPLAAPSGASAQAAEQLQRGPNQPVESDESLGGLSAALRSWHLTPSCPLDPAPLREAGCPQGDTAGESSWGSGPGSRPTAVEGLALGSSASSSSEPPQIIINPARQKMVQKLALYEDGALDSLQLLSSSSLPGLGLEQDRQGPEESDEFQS

[2] = target: T1, Serine/threonine-protein kinase 17B (Homo sapiens) (UniProt O94768); experiment: Inhibition of wild-type human full length DRAK2 (M1 to C372 residues) expressed in bacterial expression system at 1 uM by Kinomescan method
T1 sequence (whole entry): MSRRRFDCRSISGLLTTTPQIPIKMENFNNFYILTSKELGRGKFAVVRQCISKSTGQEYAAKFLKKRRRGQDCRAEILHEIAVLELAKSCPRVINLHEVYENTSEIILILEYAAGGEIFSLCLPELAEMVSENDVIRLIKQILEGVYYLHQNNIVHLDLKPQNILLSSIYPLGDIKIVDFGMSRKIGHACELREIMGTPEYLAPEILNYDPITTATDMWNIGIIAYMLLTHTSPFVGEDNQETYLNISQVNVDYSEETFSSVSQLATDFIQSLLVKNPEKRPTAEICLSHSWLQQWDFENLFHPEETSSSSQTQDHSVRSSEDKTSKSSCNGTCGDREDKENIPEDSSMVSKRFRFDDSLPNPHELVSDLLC

[3] = target: T2, Cyclin-G-associated kinase (Homo sapiens) (UniProt O14976); experiment: Inhibition of wild-type human partial length GAK (G13 to Y338 residues) expressed in bacterial expression system at 1 uM by Kinomescan method relative to control
T2 sequence (whole entry): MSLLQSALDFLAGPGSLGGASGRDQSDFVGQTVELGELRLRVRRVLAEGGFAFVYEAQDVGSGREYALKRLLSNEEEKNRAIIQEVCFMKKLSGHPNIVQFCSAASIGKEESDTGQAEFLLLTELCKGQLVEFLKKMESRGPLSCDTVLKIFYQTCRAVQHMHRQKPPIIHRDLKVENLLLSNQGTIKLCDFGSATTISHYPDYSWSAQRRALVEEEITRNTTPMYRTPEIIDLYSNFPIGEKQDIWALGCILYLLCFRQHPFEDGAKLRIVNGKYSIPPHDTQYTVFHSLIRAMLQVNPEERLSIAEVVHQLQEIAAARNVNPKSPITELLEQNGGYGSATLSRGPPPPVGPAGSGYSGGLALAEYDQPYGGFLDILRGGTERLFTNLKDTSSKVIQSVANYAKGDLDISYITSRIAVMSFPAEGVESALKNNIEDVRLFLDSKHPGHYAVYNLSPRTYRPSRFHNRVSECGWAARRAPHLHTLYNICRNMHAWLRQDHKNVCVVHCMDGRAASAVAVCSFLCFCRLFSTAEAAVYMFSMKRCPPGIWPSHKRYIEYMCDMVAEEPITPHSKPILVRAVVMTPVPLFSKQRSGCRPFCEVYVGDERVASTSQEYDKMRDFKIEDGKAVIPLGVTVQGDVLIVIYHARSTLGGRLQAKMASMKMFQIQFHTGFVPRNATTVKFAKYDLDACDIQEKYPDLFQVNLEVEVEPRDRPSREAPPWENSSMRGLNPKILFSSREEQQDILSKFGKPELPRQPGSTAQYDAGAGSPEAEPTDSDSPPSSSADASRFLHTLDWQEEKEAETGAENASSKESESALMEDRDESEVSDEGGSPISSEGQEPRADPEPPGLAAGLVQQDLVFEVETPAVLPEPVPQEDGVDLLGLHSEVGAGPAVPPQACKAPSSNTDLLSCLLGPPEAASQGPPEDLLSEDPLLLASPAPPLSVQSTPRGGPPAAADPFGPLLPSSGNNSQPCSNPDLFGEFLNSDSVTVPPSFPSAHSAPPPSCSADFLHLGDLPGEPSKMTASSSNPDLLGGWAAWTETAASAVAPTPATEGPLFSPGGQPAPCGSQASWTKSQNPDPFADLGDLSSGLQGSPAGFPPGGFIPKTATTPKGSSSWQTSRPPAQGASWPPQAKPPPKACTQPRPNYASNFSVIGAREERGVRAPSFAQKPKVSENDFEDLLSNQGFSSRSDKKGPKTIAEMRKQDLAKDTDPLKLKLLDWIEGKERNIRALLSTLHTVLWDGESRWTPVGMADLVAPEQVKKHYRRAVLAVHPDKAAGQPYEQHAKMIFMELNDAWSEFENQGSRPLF

COc1cc(N2CCC(OCC(=O)N[C@H](C(=O)N3C[C@H](O)C[C@H]3C(=O)N[C@@H](C)c3ccc(-c4scnc4C)cc3)C(C)(C)C)CC2)ccc1NC(=O)c1cccc(-c2ccn[nH]2)n1 was tested, and the pIC50 [1] was 7.14, the inhibition [2] was “Active” and the inhibition [3] was 63%.

Reference: ChEMBL document CHEMBL5029152, “Discovery of Highly Potent and Selective IRAK1 Degraders to Probe Scaffolding Functions of IRAK1 in ABC DLBCL” (J Med Chem, 2021)
